Test results reported in PMC6437697 (Journal of Medicinal Chemistry, 2019).

How the values were obtained:
Assay in all cases: KINOMEscan
Assay type in all cases: binding
Conditions in all cases: read-out: % control activity remaining
RIPK4 = molecular target: T1, RIPK4 (Homo sapiens, UniProt P57078)
T1 construct: purchased Eurofins DiscoverX KINOMEscan
T1 sequence (P57078 1-832): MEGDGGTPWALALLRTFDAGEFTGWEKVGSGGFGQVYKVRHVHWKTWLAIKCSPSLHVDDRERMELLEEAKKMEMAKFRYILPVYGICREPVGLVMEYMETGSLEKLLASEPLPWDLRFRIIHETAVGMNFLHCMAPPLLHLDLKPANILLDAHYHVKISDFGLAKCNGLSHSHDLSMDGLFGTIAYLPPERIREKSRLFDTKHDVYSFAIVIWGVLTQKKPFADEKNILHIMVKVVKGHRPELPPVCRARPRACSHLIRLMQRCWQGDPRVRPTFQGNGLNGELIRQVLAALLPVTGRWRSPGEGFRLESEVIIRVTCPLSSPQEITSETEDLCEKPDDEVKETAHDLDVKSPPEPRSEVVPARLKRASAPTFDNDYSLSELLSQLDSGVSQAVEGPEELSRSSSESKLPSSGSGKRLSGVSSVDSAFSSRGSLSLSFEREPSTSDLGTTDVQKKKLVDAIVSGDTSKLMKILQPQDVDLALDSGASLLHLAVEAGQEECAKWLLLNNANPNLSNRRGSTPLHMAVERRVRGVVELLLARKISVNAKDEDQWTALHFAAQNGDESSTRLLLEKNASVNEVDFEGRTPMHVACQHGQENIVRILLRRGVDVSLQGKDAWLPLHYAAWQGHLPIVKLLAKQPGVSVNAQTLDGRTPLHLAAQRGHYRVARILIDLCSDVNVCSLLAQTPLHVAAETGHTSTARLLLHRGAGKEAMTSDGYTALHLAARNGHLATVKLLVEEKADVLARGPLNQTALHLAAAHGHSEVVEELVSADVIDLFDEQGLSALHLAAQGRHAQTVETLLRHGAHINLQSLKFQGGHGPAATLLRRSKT

BRAF = molecular target: T2, BRAF (Homo sapiens, UniProt P15056)
T2 construct: purchased Eurofins DiscoverX KINOMEscan

CDKL1 = molecular target: T3, CDKL1 (Homo sapiens, UniProt Q00532)
T3 construct: purchased Eurofins DiscoverX KINOMEscan
T3 sequence (Q00532 whole entry): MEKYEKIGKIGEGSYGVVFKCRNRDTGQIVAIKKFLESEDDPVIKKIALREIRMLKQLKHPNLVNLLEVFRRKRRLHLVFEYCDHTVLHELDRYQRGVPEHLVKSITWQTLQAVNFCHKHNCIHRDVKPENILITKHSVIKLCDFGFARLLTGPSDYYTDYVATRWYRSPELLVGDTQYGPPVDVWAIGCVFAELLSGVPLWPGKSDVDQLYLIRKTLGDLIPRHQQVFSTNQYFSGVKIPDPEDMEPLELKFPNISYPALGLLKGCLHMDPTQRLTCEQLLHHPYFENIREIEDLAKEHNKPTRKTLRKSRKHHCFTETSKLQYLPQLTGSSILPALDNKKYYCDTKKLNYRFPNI

CASK = molecular target: T4, CASK (Homo sapiens, UniProt O14936)
T4 construct: purchased Eurofins DiscoverX KINOMEscan
T4 sequence (O14936 1-926): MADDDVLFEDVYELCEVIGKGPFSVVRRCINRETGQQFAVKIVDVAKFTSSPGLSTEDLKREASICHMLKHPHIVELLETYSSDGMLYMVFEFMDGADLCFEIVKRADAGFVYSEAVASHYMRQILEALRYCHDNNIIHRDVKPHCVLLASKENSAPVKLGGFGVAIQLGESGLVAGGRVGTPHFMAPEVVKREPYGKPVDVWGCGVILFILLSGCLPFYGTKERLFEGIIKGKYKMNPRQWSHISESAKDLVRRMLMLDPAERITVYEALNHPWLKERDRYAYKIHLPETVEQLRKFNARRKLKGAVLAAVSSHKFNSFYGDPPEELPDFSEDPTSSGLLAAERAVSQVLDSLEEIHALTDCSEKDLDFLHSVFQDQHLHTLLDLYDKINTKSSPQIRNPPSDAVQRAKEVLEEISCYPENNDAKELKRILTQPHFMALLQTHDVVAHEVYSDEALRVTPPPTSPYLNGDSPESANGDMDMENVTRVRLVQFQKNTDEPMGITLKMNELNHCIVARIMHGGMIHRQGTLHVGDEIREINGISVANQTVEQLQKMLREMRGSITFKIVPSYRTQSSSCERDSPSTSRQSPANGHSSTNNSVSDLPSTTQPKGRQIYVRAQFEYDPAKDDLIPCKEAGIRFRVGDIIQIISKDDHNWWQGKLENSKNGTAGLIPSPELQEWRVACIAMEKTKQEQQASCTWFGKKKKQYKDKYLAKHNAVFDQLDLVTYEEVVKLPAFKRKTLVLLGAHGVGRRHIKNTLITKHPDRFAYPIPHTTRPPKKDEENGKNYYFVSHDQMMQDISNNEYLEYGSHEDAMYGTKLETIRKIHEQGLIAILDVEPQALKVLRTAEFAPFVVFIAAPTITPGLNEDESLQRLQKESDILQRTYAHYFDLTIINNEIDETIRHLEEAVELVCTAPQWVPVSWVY

[1] = molecular target: T5, RSK2(Kin.Dom.2-C-terminal) (Homo sapiens, UniProt P51812)
T5 construct: RSK2(Kin.Dom.2-C-terminal); purchased Eurofins DiscoverX KINOMEscan
T5 sequence (P51812 422-679 limits assumed): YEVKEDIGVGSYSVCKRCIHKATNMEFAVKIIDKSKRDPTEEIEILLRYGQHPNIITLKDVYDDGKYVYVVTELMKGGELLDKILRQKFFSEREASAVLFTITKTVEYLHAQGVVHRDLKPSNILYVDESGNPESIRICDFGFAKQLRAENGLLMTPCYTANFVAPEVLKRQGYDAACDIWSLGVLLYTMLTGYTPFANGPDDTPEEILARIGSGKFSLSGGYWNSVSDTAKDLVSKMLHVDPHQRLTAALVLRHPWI

CDK8 = molecular target: T6, CDK8 (Homo sapiens, UniProt P49336)
T6 construct: purchased Eurofins DiscoverX KINOMEscan

MYO3A = molecular target: T7, MYO3A (Homo sapiens, UniProt Q8NEV4)
T7 construct: purchased Eurofins DiscoverX KINOMEscan
T7 sequence (Q8NEV4 whole entry): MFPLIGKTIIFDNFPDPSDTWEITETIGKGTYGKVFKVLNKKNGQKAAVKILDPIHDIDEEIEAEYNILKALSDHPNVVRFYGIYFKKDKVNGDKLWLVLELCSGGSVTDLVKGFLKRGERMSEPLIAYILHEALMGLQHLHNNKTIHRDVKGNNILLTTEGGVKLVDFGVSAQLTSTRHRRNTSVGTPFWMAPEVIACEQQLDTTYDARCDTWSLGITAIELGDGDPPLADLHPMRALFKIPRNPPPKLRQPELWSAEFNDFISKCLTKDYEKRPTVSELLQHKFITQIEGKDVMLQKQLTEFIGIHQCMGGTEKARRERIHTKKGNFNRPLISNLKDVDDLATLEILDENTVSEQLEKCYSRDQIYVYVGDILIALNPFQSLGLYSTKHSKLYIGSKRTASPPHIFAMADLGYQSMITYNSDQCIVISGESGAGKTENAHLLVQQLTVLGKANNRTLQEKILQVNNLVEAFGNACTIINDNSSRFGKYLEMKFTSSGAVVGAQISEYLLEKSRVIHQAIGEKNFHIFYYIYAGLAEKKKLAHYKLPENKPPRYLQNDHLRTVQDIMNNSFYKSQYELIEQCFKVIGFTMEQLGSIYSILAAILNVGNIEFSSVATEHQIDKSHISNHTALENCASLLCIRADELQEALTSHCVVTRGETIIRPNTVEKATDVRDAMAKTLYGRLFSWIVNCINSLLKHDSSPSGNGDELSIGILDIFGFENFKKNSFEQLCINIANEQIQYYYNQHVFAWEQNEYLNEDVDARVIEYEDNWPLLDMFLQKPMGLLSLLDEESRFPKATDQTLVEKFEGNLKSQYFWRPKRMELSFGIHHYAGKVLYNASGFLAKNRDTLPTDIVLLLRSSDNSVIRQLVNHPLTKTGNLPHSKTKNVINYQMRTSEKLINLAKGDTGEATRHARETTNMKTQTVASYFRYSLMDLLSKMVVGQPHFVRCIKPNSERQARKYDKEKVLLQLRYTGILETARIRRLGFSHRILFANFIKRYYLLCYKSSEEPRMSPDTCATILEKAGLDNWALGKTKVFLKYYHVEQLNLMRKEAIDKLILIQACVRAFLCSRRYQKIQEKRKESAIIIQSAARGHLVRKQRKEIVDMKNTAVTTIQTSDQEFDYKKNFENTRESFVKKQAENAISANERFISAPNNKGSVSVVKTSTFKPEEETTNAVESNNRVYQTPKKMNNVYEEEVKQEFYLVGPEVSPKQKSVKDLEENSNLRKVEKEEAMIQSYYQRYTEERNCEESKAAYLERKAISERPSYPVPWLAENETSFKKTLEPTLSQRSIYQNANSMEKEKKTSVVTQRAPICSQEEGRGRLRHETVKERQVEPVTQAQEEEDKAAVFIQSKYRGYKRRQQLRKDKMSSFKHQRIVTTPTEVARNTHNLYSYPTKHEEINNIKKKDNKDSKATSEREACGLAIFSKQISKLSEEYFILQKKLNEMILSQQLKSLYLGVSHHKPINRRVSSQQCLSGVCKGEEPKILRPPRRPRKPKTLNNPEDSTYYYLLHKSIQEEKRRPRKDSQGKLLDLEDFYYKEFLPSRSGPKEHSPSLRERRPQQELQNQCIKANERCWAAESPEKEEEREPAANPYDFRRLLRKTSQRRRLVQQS

SYK = molecular target: T8, SYK (Homo sapiens, UniProt P43405)
T8 construct: purchased Eurofins DiscoverX KINOMEscan

PIM1 = molecular target: T9, PIM1 (Homo sapiens, UniProt P11309)
T9 construct: purchased Eurofins DiscoverX KINOMEscan

ALK(L1196M) = molecular target: T10, ALK(L1196M) (Homo sapiens, UniProt Q9UM73, L1196M)
T10 construct: purchased Eurofins DiscoverX KINOMEscan
T10 sequence (Q9UM73 19-1620 L1196M): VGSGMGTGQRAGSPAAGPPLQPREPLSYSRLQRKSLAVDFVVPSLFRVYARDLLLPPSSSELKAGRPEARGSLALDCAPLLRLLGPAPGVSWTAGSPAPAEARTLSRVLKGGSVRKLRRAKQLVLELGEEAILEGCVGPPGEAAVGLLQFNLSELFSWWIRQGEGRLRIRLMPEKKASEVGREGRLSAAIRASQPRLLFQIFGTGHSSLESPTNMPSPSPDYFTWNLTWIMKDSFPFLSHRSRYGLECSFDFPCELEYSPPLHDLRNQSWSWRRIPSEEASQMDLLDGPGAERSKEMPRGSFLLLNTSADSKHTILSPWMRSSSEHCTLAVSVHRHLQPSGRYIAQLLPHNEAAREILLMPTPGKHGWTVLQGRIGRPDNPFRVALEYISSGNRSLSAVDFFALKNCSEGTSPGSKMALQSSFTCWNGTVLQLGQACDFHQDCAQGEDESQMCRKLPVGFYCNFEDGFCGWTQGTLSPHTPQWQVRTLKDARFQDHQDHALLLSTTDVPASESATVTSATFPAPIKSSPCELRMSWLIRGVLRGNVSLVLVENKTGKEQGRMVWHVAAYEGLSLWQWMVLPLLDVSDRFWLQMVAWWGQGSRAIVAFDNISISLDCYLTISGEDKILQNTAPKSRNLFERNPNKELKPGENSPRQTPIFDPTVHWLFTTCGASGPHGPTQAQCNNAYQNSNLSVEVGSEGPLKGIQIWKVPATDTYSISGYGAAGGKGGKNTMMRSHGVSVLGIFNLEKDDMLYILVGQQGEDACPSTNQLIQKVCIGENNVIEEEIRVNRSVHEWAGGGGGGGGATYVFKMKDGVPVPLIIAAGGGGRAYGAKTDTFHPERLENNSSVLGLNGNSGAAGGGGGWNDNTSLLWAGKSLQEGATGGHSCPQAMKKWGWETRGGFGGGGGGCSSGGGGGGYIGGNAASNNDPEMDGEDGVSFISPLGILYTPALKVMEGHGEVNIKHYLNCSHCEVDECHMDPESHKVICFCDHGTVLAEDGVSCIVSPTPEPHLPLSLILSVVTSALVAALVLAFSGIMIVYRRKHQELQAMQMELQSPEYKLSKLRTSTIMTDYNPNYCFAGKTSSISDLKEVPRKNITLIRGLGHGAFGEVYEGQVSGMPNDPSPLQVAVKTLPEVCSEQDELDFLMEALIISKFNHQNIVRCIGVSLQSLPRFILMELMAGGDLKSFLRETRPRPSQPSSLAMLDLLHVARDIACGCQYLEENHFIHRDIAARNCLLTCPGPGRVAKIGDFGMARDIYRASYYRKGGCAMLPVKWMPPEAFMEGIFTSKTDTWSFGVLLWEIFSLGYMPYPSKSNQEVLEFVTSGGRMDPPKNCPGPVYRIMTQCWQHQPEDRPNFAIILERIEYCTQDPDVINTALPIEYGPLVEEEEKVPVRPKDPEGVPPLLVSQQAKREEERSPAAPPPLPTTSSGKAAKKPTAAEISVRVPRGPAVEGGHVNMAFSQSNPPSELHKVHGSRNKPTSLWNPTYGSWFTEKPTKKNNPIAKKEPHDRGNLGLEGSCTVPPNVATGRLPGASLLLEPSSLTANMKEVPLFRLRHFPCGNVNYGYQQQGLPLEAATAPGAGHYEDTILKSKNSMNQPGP

CDK3 = molecular target: T11, CDK3 (Homo sapiens, UniProt Q00526)
T11 construct: purchased Eurofins DiscoverX KINOMEscan
T11 sequence (Q00526 whole entry): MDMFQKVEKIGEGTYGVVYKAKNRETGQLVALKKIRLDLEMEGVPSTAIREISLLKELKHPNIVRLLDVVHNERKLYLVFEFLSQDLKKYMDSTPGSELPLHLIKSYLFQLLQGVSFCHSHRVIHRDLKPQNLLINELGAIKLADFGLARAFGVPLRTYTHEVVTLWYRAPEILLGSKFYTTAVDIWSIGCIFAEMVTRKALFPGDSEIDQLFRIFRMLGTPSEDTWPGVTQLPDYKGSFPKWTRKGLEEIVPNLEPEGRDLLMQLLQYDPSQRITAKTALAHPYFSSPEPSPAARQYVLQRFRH

KIT(D816H) = molecular target: T12, KIT(D816H) (Homo sapiens, UniProt P10721, D816H)
T12 construct: purchased Eurofins DiscoverX KINOMEscan
T12 sequence (P10721 26-976 D816H): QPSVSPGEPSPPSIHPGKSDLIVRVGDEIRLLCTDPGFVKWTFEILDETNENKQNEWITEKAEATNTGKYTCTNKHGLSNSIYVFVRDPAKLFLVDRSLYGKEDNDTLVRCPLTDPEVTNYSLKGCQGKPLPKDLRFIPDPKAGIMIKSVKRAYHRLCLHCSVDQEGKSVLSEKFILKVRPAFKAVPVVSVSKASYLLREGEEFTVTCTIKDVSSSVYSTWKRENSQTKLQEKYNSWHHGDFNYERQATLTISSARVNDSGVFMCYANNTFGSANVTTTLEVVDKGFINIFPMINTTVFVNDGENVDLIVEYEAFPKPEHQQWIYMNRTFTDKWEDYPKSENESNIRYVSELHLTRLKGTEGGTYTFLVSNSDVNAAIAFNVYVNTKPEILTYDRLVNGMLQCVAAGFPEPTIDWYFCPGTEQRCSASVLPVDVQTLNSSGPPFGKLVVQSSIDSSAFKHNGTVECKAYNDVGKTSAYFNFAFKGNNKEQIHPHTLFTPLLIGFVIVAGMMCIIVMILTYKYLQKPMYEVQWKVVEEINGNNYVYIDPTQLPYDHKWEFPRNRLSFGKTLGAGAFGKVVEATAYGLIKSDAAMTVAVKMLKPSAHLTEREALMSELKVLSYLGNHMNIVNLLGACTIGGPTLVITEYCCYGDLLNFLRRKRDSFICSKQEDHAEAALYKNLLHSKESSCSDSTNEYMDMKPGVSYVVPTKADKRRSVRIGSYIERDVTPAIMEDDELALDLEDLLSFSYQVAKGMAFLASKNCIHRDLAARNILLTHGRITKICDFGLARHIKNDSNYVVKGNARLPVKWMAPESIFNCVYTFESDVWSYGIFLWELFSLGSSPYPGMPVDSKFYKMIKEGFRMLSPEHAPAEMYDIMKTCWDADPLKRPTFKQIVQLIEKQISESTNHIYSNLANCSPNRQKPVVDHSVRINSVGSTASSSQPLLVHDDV

DAPK3 = molecular target: T13, DAPK3 (Homo sapiens, UniProt O43293)
T13 construct: purchased Eurofins DiscoverX KINOMEscan

FLT3-autoinhibited = molecular target: T14, FLT3-autoinhibited (Homo sapiens, UniProt P36888)
T14 construct: purchased Eurofins DiscoverX KINOMEscan
T14 sequence (P36888 564-993 limits assumed): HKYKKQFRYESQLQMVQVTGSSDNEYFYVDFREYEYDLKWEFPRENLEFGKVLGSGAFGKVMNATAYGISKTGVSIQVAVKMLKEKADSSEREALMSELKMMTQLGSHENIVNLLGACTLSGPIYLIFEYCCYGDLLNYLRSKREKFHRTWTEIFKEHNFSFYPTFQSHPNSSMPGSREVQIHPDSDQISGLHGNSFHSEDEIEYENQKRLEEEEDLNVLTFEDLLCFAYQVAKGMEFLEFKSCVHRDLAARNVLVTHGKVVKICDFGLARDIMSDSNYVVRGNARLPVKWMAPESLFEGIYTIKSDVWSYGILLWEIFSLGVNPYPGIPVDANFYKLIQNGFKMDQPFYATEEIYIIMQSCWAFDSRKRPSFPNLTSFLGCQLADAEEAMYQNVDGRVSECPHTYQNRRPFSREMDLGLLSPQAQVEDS

Clc1cc(NCC2CC2)c2ncc(-c3ccc4[nH]ncc4c3)n2n1 [compound 2, 6-Chloro-N-(cyclopropylmethyl)-3-(1H-indazol-5-yl)imidazo[1,2-b]pyridazin-8-amine]
remaining binding at 1 µM (RIPK4): 96% | remaining binding at 1 µM (BRAF): 98% | remaining binding at 1 µM (CDKL1): 74% | remaining binding at 1 µM (CASK): 87% | remaining binding at 1 µM [1]: 89% | remaining binding at 1 µM (CDK8): 82% | remaining binding at 1 µM (MYO3A): 96% | remaining binding at 1 µM (SYK): 97% | remaining binding at 1 µM (PIM1): 100% | remaining binding at 1 µM (ALK(L1196M)): 77% | remaining binding at 1 µM (CDK3): 95% | remaining binding at 1 µM (KIT(D816H)): 100% | remaining binding at 1 µM (DAPK3): 85% | remaining binding at 1 µM (FLT3-autoinhibited): 42%

O=C(CN1CCOCC1)N[C@H]1CC[C@H](Nc2cc(Cl)nn3c(-c4ccc5[nH]ncc5c4)cnc23)CC1 [compound 26]
remaining binding at 1 µM (RIPK4): 95% | remaining binding at 1 µM (BRAF): 98% | remaining binding at 1 µM (CDKL1): 90% | remaining binding at 1 µM (CASK): 59% | remaining binding at 1 µM [1]: 100% | remaining binding at 1 µM (CDK8): 97% | remaining binding at 1 µM (MYO3A): 96% | remaining binding at 1 µM (SYK): 100% | remaining binding at 1 µM (PIM1): 68% | remaining binding at 1 µM (ALK(L1196M)): 90% | remaining binding at 1 µM (CDK3): 90% | remaining binding at 1 µM (KIT(D816H)): 63% | remaining binding at 1 µM (DAPK3): 34% | remaining binding at 1 µM (FLT3-autoinhibited): 0.65%

CN1CCC(CNc2cc(Cl)nn3c(-c4cc5nc(Nc6ccccc6)[nH]c5cc4F)cnc23)CC1 [compound 31, 6-Chloro-3-(6-fluoro-2-(phenylamino)-1H-benzo[d]imidazol-5-yl)-N-((1-methylpiperidin-4-yl)methyl)imidazo[1,2-b]pyridazin-8-amine]
remaining binding at 1 µM (RIPK4): 98% | remaining binding at 1 µM (BRAF): 96% | remaining binding at 1 µM (CDKL1): 67% | remaining binding at 1 µM (CASK): 100% | remaining binding at 1 µM [1]: 73% | remaining binding at 1 µM (CDK8): 70% | remaining binding at 1 µM (MYO3A): 97% | remaining binding at 1 µM (SYK): 92% | remaining binding at 1 µM (PIM1): 95% | remaining binding at 1 µM (ALK(L1196M)): 94% | remaining binding at 1 µM (CDK3): 97% | remaining binding at 1 µM (KIT(D816H)): 96% | remaining binding at 1 µM (DAPK3): 84% | remaining binding at 1 µM (FLT3-autoinhibited): 90%
